Literature values as cited in patent US20170304358A1, “PRIMARY AND SECONDARY PREVENTION OF DEMENTIAS AND SUICIDE WITH TRACE DOSE LITHIUM” (priority 2014, published 2017).

Tests used:
[1] = test system: cognition in persons with MCI; conditions: micro-doses (<0.28 mg/d of lithium carbonate)
[2] = standard doses of lithium

| SMILES | benefit for cognition in MCI [1] | adverse side effects [2] |
| --- | --- | --- |
| O=C([O-])[O-].[Li+].[Li+] [Lithium carbonate, lithium carbonate] | some benefit for cognition |  |
| [Li] [lithium] |  | renal toxicity |
